Measured values reported in PubChem BioAssay (NCI).
“And” between values parts separate entries of the source, which are not always exact repeats. Equal values may be shown once.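 Test compounds were applied to cells in 96-well plates for 48 hours at 5 doses. Here, GI50 denotes the concentration required for 50% inhibition of growth. TGI is the concentration that stops growth completely.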

Tests used:
Experiment in all cases: NCI-60 cell line screen, 48 h
[1] = system: HL-60(TB) leukemia
[2] = system: K-562 leukemia
[3] = system: SNB-75 CNS
[4] = system: OVCAR-3 ovarian
[5] = system: DLD-1 colon
[6] = system: SF-295 CNS
[7] = system: UO-31 renal
[8] = system: HOP-62 NSCLC
[9] = system: XF 498 CNS
[10] = system: MDA-MB-231 breast

Row | SMILES | TGI [1] | TGI [2] [µM] | TGI [3] | TGI [4] [µM] | TGI [5] [µM] | TGI [6] | TGI [7] | TGI [8] | TGI [9] | GI50 [1] [µM] | GI50 [2] [µM] | GI50 [3] [µM] | GI50 [4] [µM] | GI50 [5] [µM] | GI50 [7] [µM] | GI50 [9] [µM] | GI50 [10] [µM] | TGI [10] [µM] | GI50 [6] [µM] | GI50 [8] [µM]
1 | COC(=O)[C@@]1(O)CC(C)C=C1C=O (some centres undefined) | 51.6 µM | > 100 | > 100 µM | > 100 | > 100 | > 100 µM | > 100 µM | > 100 µM | > 100 µM | – | – | – | – | – | – | – | – | – | – | –
2 | CCCCCCCCC(O)C#CC(N)=O (centres undefined) | 40.3 µM | 75.4 | 17.5 µM | 20.5 | 21.8 | > 100 µM | 21.6 µM | – | 30.8 µM | – | – | – | – | – | – | – | – | – | – | –
3 | COc1cc(C=O)c(-c2cc3c(cc2C2(C)OCCS2)OCO3)c(OC)c1OC (centres undefined) | 82.1 µM | > 239 | 21.3 µM | 13.6 | 50.7 | 48 µM | 64.2 µM | 47.1 µM | 37.1 µM | – | – | – | – | – | – | – | – | – | – | –
4 | COc1cc([C@H]2c3cc4c(cc3[C@H](NCc3ccc([N+](=O)[O-])cc3)C3COC(=O)[C@H]32)OCO4)cc(OC)c1O (some centres undefined) | – | > 100 | 6.6 µM | 40 | > 43.5 | 5.14 µM | 5.75 µM | 0.784 µM | 20.4 µM | – | – | – | – | – | – | – | – | – | – | –
5 | O=C(NC12CC3CC(CC(C3)C1)C2)C(=O)c1c[nH]c2ccc([N+](=O)[O-])cc12 | > 100 µM | > 100 | 52.8 µM | > 100 | – | 37.9 µM | > 100 µM | > 59.1 µM | 60.6 µM | – | – | – | – | – | – | – | – | – | – | –
6 | CCCCN=C(NC#N)N(Cc1ccccc1)Cc1ccccc1 | 49.6 µM | 88.1 | > 100 µM | 64.8 | 36.4 | 63.2 µM | 58 µM | 62 µM | – | – | – | – | – | – | – | – | – | – | – | –
7 | Nc1nc(NC2C=C(CO)C(O)C2O)c([N+](=O)[O-])c(=O)[nH]1 (centres undefined) | – | > 100 | > 100 µM | > 100 | > 100 | > 100 µM | > 100 µM | > 100 µM | > 100 µM | – | – | – | – | – | – | – | – | – | – | –
8 | O=c1cc(-c2ccccc2)[nH]c2c(Cl)cccc12 | > 100 µM | > 100 | 54.8 µM | > 100 | > 100 | 58.5 µM | > 100 µM | > 100 µM | 96.4 µM | – | – | – | – | – | – | – | – | – | – | –
9 | CCC(=O)C(C)C(=O)C(=O)C(=O)OC (centres undefined) | > 64.4 µM | > 100 | > 100 µM | > 100 | > 100 | > 100 µM | > 100 µM | > 100 µM | > 100 µM | – | – | – | – | – | – | – | – | – | – | –
10 | CC(C)(O)[C@@H]1CC[C@@]2(C)CCC[C@H](O)[C@H]2C1 | > 100 µM | > 100 | > 100 µM | > 100 | > 100 | > 100 µM | > 100 µM | > 100 µM | > 100 µM | – | – | – | – | – | – | – | – | – | – | –
11 | COc1ccc(OC)c(NCC#N)c1 | > 100 µM | > 100 | > 100 µM | > 100 | – | > 100 µM | > 100 µM | > 100 µM | > 100 µM | – | – | – | – | – | – | – | – | – | – | –
12 | CSc1nc(SC)c2c(C(N)=S)[nH]nc2n1 | – | 78.9 | 76.5 µM | 57.8 | > 100 | 48.1 µM | 49.6 µM | 58.5 µM | – | – | – | – | – | – | – | – | – | – | – | –
13 | O=[P+](O)c1cc2ccccc2c2ccccc12 | > 100 µM | > 100 | > 100 µM | > 100 | > 100 | > 100 µM | – | > 100 µM | – | – | – | – | – | – | – | – | – | – | – | –
14 | CC(=O)OC(C)(C)/C=C/C(=O)[C@](C)(O)[C@H]1[C@H](O)C[C@@]2(C)[C@@H]3CC=C4[C@@H](C[C@H](O)C(=O)C4(C)C)[C@]3(CO)C(=O)C[C@]12C | 0.922 µM and 1.33 µM | 29.5 | 0.375 µM and 0.211 µM | 0.762 | 15 | 0.772 µM and 1.64 µM | 0.883 µM and 0.565 µM | 0.528 µM and 0.482 µM | 0.665 µM and 0.209 µM | 0.3 | 0.164 | 0.0529 | 0.273 | 0.216 | 0.251 | 0.108 | – | – | – | –
15 | CC1=C(C(=O)Nc2ccc([N+](=O)[O-])cc2)C(c2ccccc2O)C(C(=O)Nc2ccc([N+](=O)[O-])cc2)=C(C)N1 | 48.2 µM | 74.2 | 89 µM | 51.4 | 57.8 | 72.2 µM | 67.8 µM | 31.9 µM | 31.2 µM | – | – | – | – | – | – | – | – | – | – | –
16 | COc1ccc2nc3cc([N+](=O)[O-])ccc3c(NCCCN(CCO)CCO)c2c1 | 22.7 µM | 4.77 | 22.9 µM | 12.3 | – | 22.3 µM | 22.6 µM | 24.1 µM | – | 2.56 | 1.94 | 10.9 | 5.53 | – | 8.56 | – | 7.78 | 21.8 | 9 | 11.4
17 | Cc1ccc(-c2cc(=O)c3cc(C)c(C)c(C(=O)O)c3o2)cc1 | – | – | > 100 µM | > 100 | > 100 | > 100 µM | > 100 µM | > 100 µM | > 100 µM | – | – | – | – | – | – | – | – | – | – | –
18 | O=CC(Br)C(Br)c1ccccc1 (centres undefined) | 2.32 µM | 6.84 | 20.9 µM | 2.67 | – | 27.7 µM | 3.07 µM | 27.8 µM | – | 0.462 | 0.963 | 7.69 | 1.32 | – | 1.48 | – | 2.01 | 4.22 | 12.8 | 13.3
19 | COc1ccc([I+]c2ccccc2)cc1 | > 95.1 µM | > 100 | > 100 µM | > 100 | – | 78.2 µM | > 100 µM | 79.2 µM | – | 5.22 | 1.45 | 14 | 8.86 | – | 26.8 | – | > 78.2 | > 100 | 7.17 | 2.91
20 | C[n+]1c2ccccc2c(Nc2ccc(NS(=O)(=O)CCCCN=C(N)N)cc2)c2ccc(N)cc21 | > 56.1 µM | > 100 | > 100 µM | > 80.2 | – | > 100 µM | > 100 µM | 26.6 µM | – | 1.64 | 2.6 | 1.48 | 10.2 | – | 6.5 | – | 43.6 | > 100 | 0.0785 | 0.217
21 | O=C(O)c1ccc2c3c(ncnc13)-c1ccccc1C2=O | > 100 µM | > 100 | > 21 µM | > 100 | – | > 30.6 µM | > 100 µM | 3.75 µM | – | 27.3 | 42.1 | 3.21 | 31.2 | – | 15.8 | – | > 100 | > 100 | 2.28 | 1.76
